From patent US6844353B2, “Fungicidal properties of sampangine and its analogs to agriculturally important fungal plant pathogens” (The United States of America as represented by the …, priority 2003, dated 2005)
Like-named read-outs stand apart in the source and are kept apart here.

Key:
Assay in all cases: 96-well microtiter plate assay, fungal growth inhibition
B. cinerea = type: cell-based, Botrytis cinerea; conditions: for Percent inhibition−Percent Stimulation±SEM: B. cinerea; for inhibition at 0.3 µM / inhibition at 3 µM / inhibition at 30 µM: Botrytis cinerea, read-out: Percent inhibition−Percent Stimulation±SEM
Description: (§1) Pathogen production. Isolates of Colletotrichum acutatum Simmonds, Colletotrichum fragariae Brooks, and Colletotrichum gloeosporioides (Penz.) Penz. & Sacc. in Penz. were obtained from B. J. Smith, USDA, ARS, Small Fruit Research Station, Poplarville, Miss. Colletotrichum fragariae (isolate CF63), C. acutatum (isolate CAGoff), and C. gloeosporioides (isolate CG162) were used for all pathogen and bioautography studies. Isolate CF63 is one of the most virulent isolates at infecting strawberry plants and inducing both crown and fruit rot (Smith and Black, 1990). CF63, CAGoff, and CG162 were used as standard test isolates because of our extensive knowledge of these isolates and their known fungicide sensitivity profiles in both bioautography and microtiter formats. The three Colletotrichum species were isolated from strawberry (Fragaria x ananassa Duchesne). Botrytis cinerea Pers.: Fr, was isolated from commercial grape (Vitis vinifera L.) and Fusarium oxysporum Schlechtend: Fr from orchid (Cynoches sp.). Phomopsis viticola (Sacc.) and P. obscurans (Ellis & Everh.) Sutton were from Mike A. Ellis, Ohio State University, Wooster, Ohio. Fungi were grown on potato-dextrose agar (PDA, Difco, Detroit, Mich.) in 9 cm petri dishes and incubated in a growth chamber at 24±2° C. and under cool-white fluorescent lights ([…]·m^−2·sec^−1 light) with 12 hour photoperiod.
(§2) Inoculum preparation. Conidia were harvested from 7-10 day-old cultures by flooding plates with 5 mL of sterile distilled water and dislodging conidia by softly brushing the colonies with an L-shaped glass rod. Conidial suspensions were filtered through sterile miracloth (Calbiochem-Novabiochem Corp., La Jolla, Calif.) to remove mycelia. Conidia concentrations were determined photometrically, from a standard curve based on the percent of transmittance (% T) at 625 nm and suspensions were then adjusted with sterile distilled water to a concentration of 1.0×10^6 conidia/mL.
(§3) Microtiter assay. A standardized 96-well microtiter plate assay developed for discovery of natural product fungicidal agents was used to evaluate naturally occurring antifungal agents from Macaranga monanara. A 96-well microtiter assay was used to determine sensitivity of B. cinerea, C. acutatum, C. fragariae, C. gloeosporioides, F. oxysporum, Phomopsis viticola, and P. obscurans to the various antifungal agents in comparison with known fungicidal standards. Vinclozolin, captan, and thiabendazole, which represent three different modes of action, were used as standards in this experiment. Each fungus was challenged in a dose-response format using test compounds where the final treatment concentrations were 0.3, 3.0 and 30.0 μM. Microtiter plates (Nunc MicroWell, untreated; Roskilde, Denmark) were covered with a plastic lid and incubated in a growth chamber as described previously for fungal growth. Growth was then evaluated by measuring absorbance of each well at 620 nm using a microplate photometer (Packard Spectra Count, Packard Instrument Co., Downers Grove, Ill.). Microtiter plates (Nunc MicroWell, untreated; Roskilde, Denmark) were covered with a plastic lid and incubated in a growth chamber at 24±1° C. and 12 hour photoperiod under 60±5 μmol light. Growth was then evaluated by measuring absorbance of each well at 620 nm using a microplate photometer (Packard Spectra Count, Packard Instrument Co., Downers Grove, Ill.).
(§4) Microbioassy Experimental Design. Chemical sensitivity each of B. cinerea, C. acutatum, C. fragariae, C. gloeosporiodes, F. oxysporum, Phomopsis viticola, and P. obscurans was evaluated using 96-well plate microbioassay format. Each chemical was evaluated in duplicate at each dose (0.3, 3.0 and 30.0 μM). […]

C. fragariae = type: cell-based, Colletotrichum fragariae; conditions: for Percent inhibition−Percent Stimulation±SEM: C. fragariae; for inhibition at 0.3 µM / inhibition at 3 µM / inhibition at 30 µM: Colletotrichum fragariae, read-out: Percent inhibition−Percent Stimulation±SEM
Description: as §1, §2, §3, §4

C. acutatum = type: cell-based, Colletotrichum acutatum; conditions: for Percent inhibition−Percent Stimulation±SEM: C. acutatum; for inhibition at 0.3 µM / inhibition at 3 µM / inhibition at 30 µM: Colletotrichum acutatum, read-out: Percent inhibition−Percent Stimulation±SEM
Description: as §1, §2, §3, §4

F. oxysporum = type: cell-based, Fusarium oxysporum; conditions: for Percent inhibition−Percent Stimulation±SEM: F. oxysporum; for inhibition at 0.3 µM / inhibition at 3 µM / inhibition at 30 µM: Fusarium oxysporum, read-out: Percent inhibition−Percent Stimulation±SEM
Description: as §1, §2, §3, §4

C. gloeosporioides = type: cell-based, Colletotrichum gloeosporioides; conditions: for Percent inhibition−Percent Stimulation±SEM: C. gloeosporioides; for inhibition at 0.3 µM / inhibition at 3 µM / inhibition at 30 µM: Colletotrichum gloeosporioides, read-out: Percent inhibition−Percent Stimulation±SEM
Description: as §1, §2, §3, §4

`CO/N=C(/C(=O)OC)c1ccccc1COc1ccccc1C` [BAS 490] was tested, and the “Percent inhibition−Percent Stimulation±SEM” value (B. cinerea; 0.3 μM, 48 hrs) was −71.3 ± 28.0%, the “Percent inhibition−Percent Stimulation±SEM” value (B. cinerea; 0.3 μM, 72 hrs) was −66.6 ± 21.5% and the “Percent inhibition−Percent Stimulation±SEM” value (B. cinerea; 3.0 μM, 48 hrs) was −24.0 ± 32.0%. The “Percent inhibition−Percent Stimulation±SEM” value (B. cinerea; 3.0 μM, 72 hrs) was −37.2 ± 20.2%, the “Percent inhibition−Percent Stimulation±SEM” value (B. cinerea; 30 μM, 48 hrs) was −60.1 ± 32.9% and the “Percent inhibition−Percent Stimulation±SEM” value (B. cinerea; 30 μM, 72 hrs) was −40.9 ± 17.6%. The “Percent inhibition−Percent Stimulation±SEM” value (C. fragariae; 0.3 μM, 48 hrs) was −68.8 ± 7.1%, the “Percent inhibition−Percent Stimulation±SEM” value (C. fragariae; 0.3 μM, 72 hrs) was −35.6 ± 5.6% and the “Percent inhibition−Percent Stimulation±SEM” value (C. fragariae; 3.0 μM, 48 hrs) was −86.4 ± 3.5%. The “Percent inhibition−Percent Stimulation±SEM” value (C. fragariae; 3.0 μM, 72 hrs) was −71.9 ± 3.5%, the “Percent inhibition−Percent Stimulation±SEM” value (C. fragariae; 30 μM, 48 hrs) was −91.5 ± 1.7% and the “Percent inhibition−Percent Stimulation±SEM” value (C. fragariae; 30 μM, 72 hrs) was −80.4 ± 1.4%. The “Percent inhibition−Percent Stimulation±SEM” value (C. acutatum; 0.3 μM, 48 hrs) was −63.9 ± 3.8%, the “Percent inhibition−Percent Stimulation±SEM” value (C. acutatum; 0.3 μM, 72 hrs) was −17.8 ± 3.5% and the “Percent inhibition−Percent Stimulation±SEM” value (C. acutatum; 3.0 μM, 48 hrs) was −93.1 ± 0.6%. For the same compound, the “Percent inhibition−Percent Stimulation±SEM” value (C. acutatum; 3.0 μM, 72 hrs) was 14.7 ± 2.5%, the “Percent inhibition−Percent Stimulation±SEM” value (C. acutatum; 30 μM, 48 hrs) was −95.1 ± 0.7% and the “Percent inhibition−Percent Stimulation±SEM” value (C. acutatum; 30 μM, 72 hrs) was −69.9 ± 2.6%. For the same compound, the “Percent inhibition−Percent Stimulation±SEM” value (F. oxysporum; 0.3 μM, 48 hrs) was −82.3 ± 3.0%, the “Percent inhibition−Percent Stimulation±SEM” value (F. oxysporum; 0.3 μM, 72 hrs) was −30.3 ± 6.9% and the “Percent inhibition−Percent Stimulation±SEM” value (F. oxysporum; 3.0 μM, 48 hrs) was −92.7 ± 0.6%. The “Percent inhibition−Percent Stimulation±SEM” value (F. oxysporum; 3.0 μM, 72 hrs) was −65.5 ± 1.6%, the “Percent inhibition−Percent Stimulation±SEM” value (F. oxysporum; 30 μM, 48 hrs) was −94.7 ± 0.5% and the “Percent inhibition−Percent Stimulation±SEM” value (F. oxysporum; 30 μM, 72 hrs) was −69.5 ± 2.0%. The “Percent inhibition−Percent Stimulation±SEM” value (C. gloeosporioides; 0.3 μM, 48 hrs) was −83.3 ± 3.2%, the “Percent inhibition−Percent Stimulation±SEM” value (C. gloeosporioides; 0.3 μM, 72 hrs) was −58.7 ± 5.0% and the “Percent inhibition−Percent Stimulation±SEM” value (C. gloeosporioides; 3.0 μM, 48 hrs) was −92.4 ± 1.5%. The “Percent inhibition−Percent Stimulation±SEM” value (C. gloeosporioides; 3.0 μM, 72 hrs) was −82.6 ± 3.4%, the “Percent inhibition−Percent Stimulation±SEM” value (C. gloeosporioides; 30 μM, 48 hrs) was −97.5 ± 1.0% and the “Percent inhibition−Percent Stimulation±SEM” value (C. gloeosporioides; 30 μM, 72 hrs) was −89.7 ± 1.9%.

In the case of `CCCCNC(=O)n1c(NC(=O)OC)nc2ccccc21` [Benomyl], the inhibition at 0.3 µM (B. cinerea; 48 h) is reported as 50 ± 26.9%, the inhibition at 3 µM (B. cinerea; 48 h) is reported as 21.6 ± 27.3% and the inhibition at 30 µM (B. cinerea; 48 h) is reported as 39.9 ± 20.4%. For the same compound, the inhibition at 0.3 µM (B. cinerea; 72 h) was 71.2 ± 25.1%, the inhibition at 3 µM (B. cinerea; 72 h) was 40.9 ± 22% and the inhibition at 30 µM (B. cinerea; 72 h) was 47.3 ± 14.9%. The inhibition at 0.3 µM (C. fragariae; 48 h) was 51.5 ± 5%, the inhibition at 3 µM (C. fragariae; 48 h) was 89.6 ± 1.2% and the inhibition at 30 µM (C. fragariae; 48 h) was 92.4 ± 1.1%. The inhibition at 0.3 µM (C. fragariae; 72 h) was 36.8 ± 4.4%, the inhibition at 3 µM (C. fragariae; 72 h) was 92.7 ± 1% and the inhibition at 30 µM (C. fragariae; 72 h) was 94.3 ± 0.9%. For the same compound, the inhibition at 0.3 µM (C. acutatum; 48 h) was 24.6 ± 6.1%, the inhibition at 3 µM (C. acutatum; 48 h) was 20.3 ± 4.8% and the inhibition at 30 µM (C. acutatum; 48 h) was 16.6 ± 6.3%. The inhibition at 0.3 µM (C. acutatum; 72 h) was -7.7 ± 6.6%, the inhibition at 3 µM (C. acutatum; 72 h) was 47.7 ± 4.1% and the inhibition at 30 µM (C. acutatum; 72 h) was -15.2 ± 3.7%. The inhibition at 0.3 µM (F. oxysporum; 48 h) was 3.3 ± 4.7%, the inhibition at 3 µM (F. oxysporum; 48 h) was 12 ± 3% and the inhibition at 30 µM (F. oxysporum; 48 h) was 86.3 ± 1.6%. It also gave an inhibition at 0.3 µM (F. oxysporum; 72 h) of -1.6 ± 3.2%, an inhibition at 3 µM (F. oxysporum; 72 h) of 0.8 ± 3.5% and an inhibition at 30 µM (F. oxysporum; 72 h) of 77.2 ± 2.3%. The inhibition at 0.3 µM (C. gloeosporioides; 48 h) was 47.5 ± 9.2%, the inhibition at 3 µM (C. gloeosporioides; 48 h) was 84.2 ± 3.8% and the inhibition at 30 µM (C. gloeosporioides; 48 h) was 82.4 ± 4%. The inhibition at 0.3 µM (C. gloeosporioides; 72 h) was 16.1 ± 6.5%, the inhibition at 3 µM (C. gloeosporioides; 72 h) was 59.9 ± 9.6% and the inhibition at 30 µM (C. gloeosporioides; 72 h) was 44.8 ± 8.6%.
